Measurements published in patent US9163021B2, “Pyrrolo[3,2-c]pyridine tropomyosin-related kinase inhibitors” (Pfizer Limited, priority 2012, dated 2015).

Biological target: TRKA (Homo sapiens (Human), UniProt P04629)
Test: Isolated TRK enzyme assay (HTRF KinEASE-TK), PV3144 TrkA enzyme assay
Type: biochemical
Details: arithmetic mean where more than one reading
Summary of the method: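 Kinase (recombinant His-TrkA cytoplasmic domain, ATP-preactivated 20 min) met compound 20 min, then biotinylated TK substrate (1 µM final) with Mg2+/DTT buffer; HTRF detection.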

TRKA, sequence (P04629 441-796): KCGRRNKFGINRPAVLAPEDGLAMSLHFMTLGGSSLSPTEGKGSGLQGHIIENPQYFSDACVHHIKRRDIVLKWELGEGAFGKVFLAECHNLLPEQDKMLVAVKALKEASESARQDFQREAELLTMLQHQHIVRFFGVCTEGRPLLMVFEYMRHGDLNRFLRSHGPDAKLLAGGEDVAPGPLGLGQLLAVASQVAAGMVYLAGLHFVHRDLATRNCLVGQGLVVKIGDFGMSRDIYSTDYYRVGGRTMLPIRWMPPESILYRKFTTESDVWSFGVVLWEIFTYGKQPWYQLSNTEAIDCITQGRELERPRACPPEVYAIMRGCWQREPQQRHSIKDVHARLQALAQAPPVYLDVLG

`Cc1cc(C(F)(F)F)nn1CC(=O)Nc1cc(C(=O)c2cn(C(C)C)c3ccncc23)ccn1` [Example 104, 2-[5-methyl-3-(trifluoromethyl)-1H-pyrazol-1-yl]-N-(4-{[1-(propan-2-yl)-1H-pyrrolo[3,2-c]pyridin-3-yl]carbonyl}pyridin-2-yl)acetamide] was tested, and the IC50 was 13.8 nM.
For `CC(C)n1cc(C(=O)c2ccnc(NC(=O)Cc3ccccc3Cl)c2)c2cnccc21` [Example 105, 2-(2-chlorophenyl)-N-(4-{[1-(propan-2-yl)-1H-pyrrolo[3,2-c]pyridin-3-yl]carbonyl}pyridin-2-yl)acetamide], the IC50 was 108 nM.
`CC(C)n1cc(C(=O)c2ccnc(NC(=O)Cc3ccc(F)cc3F)c2)c2cnccc21` [Example 106, 2-(2,4-difluorophenyl)-N-(4-{[1-(propan-2-yl)-1H-pyrrolo[3,2-c]pyridin-3-yl]carbonyl}pyridin-2-yl)acetamide] gave an IC50 of 17.9 nM.
Compound `CC(C)n1cc(C(=O)c2ccnc(NC(=O)Cc3ccccc3)c2)c2cnccc21` [Example 107, 2-phenyl-N-(4-{[1-(propan-2-yl)-1H-pyrrolo[3,2-c]pyridin-3-yl]carbonyl}pyridin-2-yl)acetamide] has an IC50 of 64 nM.
`COc1cccc(CC(=O)Nc2cc(C(=O)c3cn(C(C)C)c4ccncc34)ccn2)c1` [Example 108, 2-(3-methoxyphenyl)-N-(4-{[1-(propan-2-yl)-1H-pyrrolo[3,2-c]pyridin-3-yl]carbonyl}pyridin-2-yl)acetamide] was tested, and the IC50 was 640 nM.
With `Cc1ccn(CC(=O)Nc2cc(C(=O)c3cn(C(C)C)c4ccncc34)ccn2)n1` [Example 109, 2-(3-methyl-1H-pyrazol-1-yl)-N-(4-{[1-(propan-2-yl)-1H-pyrrolo[3,2-c]pyridin-3-yl]carbonyl}pyridin-2-yl)acetamide] the IC50 was 87.1 nM.
In the case of `CC(C)n1cc(C(=O)c2ccnc(NC(=O)Cc3cnccn3)c2)c2cnccc21` [Example 110, N-(4-{[1-(propan-2-yl)-1H-pyrrolo[3,2-c]pyridin-3-yl]carbonyl}pyridin-2-yl)-2-(pyrazin-2-yl)acetamide], the IC50 is reported as 3330 nM.
Compound `CC(C)c1ccnn1CC(=O)Nc1cc(C(=O)c2cn(C(C)C)c3ccncc23)ccn1` [Example 111, 2-[5-(propan-2-yl)-1H-pyrazol-1-yl]-N-(4-{[1-(propan-2-yl)-1H-pyrrolo[3,2-c]pyridin-3-yl]carbonyl}pyridin-2-yl)acetamide] has an IC50 of 96.8 nM.
With `Cc1nc(C)n(CC(=O)Nc2cc(C(=O)c3cn(C(C)C)c4ccncc34)ccn2)n1` [Example 112, 2-(3,5-dimethyl-1H-1,2,4-triazol-1-yl)-N-(4-{[1-(propan-2-yl)-1H-pyrrolo[3,2-c]pyridin-3-yl]carbonyl}pyridin-2-yl)acetamide] the IC50 was 5110 nM.
In the case of `Cc1cc(C(C)C)nn1CC(=O)Nc1cc(C(=O)c2cn(C(C)C)c3ccncc23)ccn1` [Example 113, 2-[5-methyl-3-(propan-2-yl)-1H-pyrazol-1-yl]-N-(4-{[1-(propan-2-yl)-1H-pyrrolo[3,2-c]pyridin-3-yl]carbonyl}pyridin-2-yl)acetamide], the IC50 is reported as 20.4 nM.
`Cc1cn(CC(=O)Nc2cc(C(=O)c3cn(C(C)C)c4ccncc34)ccn2)nn1` [Example 114, 2-(4-methyl-1H-1,2,3-triazol-1-yl)-N-(4-{[1-(propan-2-yl)-1H-pyrrolo[3,2-c]pyridin-3-yl]carbonyl}pyridin-2-yl)acetamide] showed an IC50 of 289 nM.
`CC(C)n1cc(C(=O)c2cncc(NC(=O)Cc3ccc(F)cc3)c2)c2cnccc21` [Example 115, 2-(4-fluorophenyl)-N-(5-{[1-(propan-2-yl)-1H-pyrrolo[3,2-c]pyridin-3-yl]carbonyl}pyridin-3-yl)acetamide] gave an IC50 of 42 nM.
In the case of `CC(C)n1cc(C(=O)c2cncc(NC(=O)Cc3ccc(Cl)cc3)c2)c2cnccc21` [Example 116, 2-(4-chlorophenyl)-N-(5-{[1-(propan-2-yl)-1H-pyrrolo[3,2-c]pyridin-3-yl]carbonyl}pyridin-3-yl)acetamide], the IC50 is reported as 11.3 nM.
Work on `CC(C)n1cc(C(=O)c2cncc(NC(=O)Cc3cccc(CC(C)(C)O)c3)c2)c2cnccc21` [Example 117, 2-(3-(2-hydroxy-2-methylpropyl)phenyl]-N-(5-{[1-(propan-2-yl)-1H-pyrrolo[3,2-c]pyridin-3-yl]carbonyl}pyridin-3-yl)acetamide] yielded an IC50 of 39.2 nM.
For `Cc1nccn1CC(=O)Nc1cncc(C(=O)c2cn(C(C)C)c3ccncc23)c1` [Example 118, 2-(2-methyl-1H-imidazol-1-yl)-N-(5-{[1-(propan-2-yl)-1H-pyrrolo[3,2-c]pyridin-3-yl]carbonyl}pyridin-3-yl)acetamide], the IC50 was 9150 nM.
Work on `CC(C)n1cc(C(=O)c2cncc(NC(=O)Cc3ncccn3)c2)c2cnccc21` [Example 119, N-(5-{[1-(propan-2-yl)-1H-pyrrolo[3,2-c]pyridin-3-yl]carbonyl}pyridin-3-yl)-2-(pyrimidin-2-yl)acetamide] yielded an IC50 of 4900 nM.
`Cc1cc(C(C)C)nn1CC(=O)Nc1cncc(C(=O)c2cn(C(C)C)c3ccncc23)c1` [Example 120, 2-(5-methyl-3-(propan-2-yl)-1H-pyrazol-1-yl]-N-(5-{[1-(propan-2-yl)-1H-pyrrolo[3,2-c]pyridin-3-yl]carbonyl}pyridin-3-yl)acetamide] showed an IC50 of 39.5 nM.
In the case of `Cc1cc(C(F)(F)F)nn1CC(=O)Nc1cncc(C(=O)c2cn(C(C)C)c3ccncc23)c1` [Example 121, 2-(5-methyl-3-(trifluoromethyl)-1H-pyrazol-1-yl]-N(5-{[1-(propan-2-yl)-1H-pyrrolo[3,2-c]pyridin-3-yl]carbonyl}pyridin-3-yl)acetamide], the IC50 is reported as 14.3 nM.
`CC(C)n1cc(C(=O)c2cncc(NC(=O)Cn3cccn3)c2)c2cnccc21` [Example 122, N-(5-{[1-(propan-2-yl)-1H-pyrrolo[3,2-c]pyridin-3-yl]carbonyl}pyridin-3-yl)-2(1H-pyrazol-1-yl)acetamide] was tested, and the IC50 was 1220 nM.
For `CC(C)c1cn(CC(=O)Nc2cncc(C(=O)c3cn(C(C)C)c4ccncc34)c2)nn1` [Example 123], the IC50 was 59.5 nM.
Compound `CC(C)c1ccnn1CC(=O)Nc1cncc(C(=O)c2cn(C(C)C)c3ccncc23)c1` [Example 124, 2-(5-(propan-2-yl)-1H-pyrazol-1-yl]-N-(5-{[1-(propan-2-yl)-1H-pyrrolo[3,2-c]pyridin-3-yl]carbonyl}pyridin-3-yl)acetamide] has an IC50 of 198 nM.
`CC(C)n1cc(C(=O)c2cncc(NC(=O)Cc3cccc(Cl)c3)c2)c2cnccc21` [Example 125, 2-(3-chlorophenyl)-N-(5-{[1-(propan-2-yl)-1H-pyrrolo[3,2-c]pyridin-3-yl]carbonyl}pyridin-3-yl)acetamide] was tested, and the IC50 was 707 nM.
`CC(C)n1cc(C(=O)c2cncc(NC(=O)Cc3cccc(Cl)c3)c2)c2cnccc21` [Example 126, 2-(3-chlorophenyl)-N-(5-{[1-(propan-2-yl)-1H-pyrrolo[3,2-c]pyridin-3-yl]carbonyl}pyridin-3-yl)acetamide] was tested, and the IC50 was 28.6 nM.
Compound `CC(C)n1cc(C(=O)c2cncc(NC(=O)Cn3cc(Cl)cn3)c2)c2cnccc21` [Example 127, 2-(4-chloro-1H-pyrazol-1-yl)-N-(5-{[1-(propan-2-yl)-1H-pyrrolo[3,2-c]pyridin-3-yl]carbonyl}pyridin-3-yl)acetamide] has an IC50 of 41.8 nM.
With `COc1ccc(CC(=O)Nc2cncc(C(=O)c3cn(C(C)C)c4ccncc34)c2)cc1` [Example 128, 2-(4-methoxyphenyl)-N-(5-{[1-(propan-2-yl)-1H-pyrrolo[3,2-c]pyridin-3-yl]carbonyl}pyridin-3-yl)acetamide] the IC50 was 147 nM.
